The text below walks through data of paper PMC5177629, “Selective Estrogen Receptor Modulators: Cannabinoid Receptor Inverse Agonists with Differential CB1 and CB2 Selectivity” (Frontiers in Pharmacology, 2016).

The target of test [1] is T1, human cannabinoid type-2 receptors (hCB2) (Homo sapiens, UniProt P34972).
T1 construct: expressed in transfected cells; host or cells: CHO cells (CHO-hCB2), membranes or intact cells
Put plainly: [35S]GTPγS binding, CHO-hCB2 membranes. The class given is biochemical. The settings on record: for IMAX, GTPγS Binding (% Basal) CHO-hCB2: maximal reduction of basal G-protein activity. On the procedure: (§1) In short, pellets were thawed on ice, combined in a 40 ml glass Dounce homogenizer and homogenized in 20 ml of cold buffer (50 mM HEPES at pH 7.4, 3 mM MgCl2, and 1 mM EGTA) using 10 strokes. Homogenates were then centrifuged at 40,000 × g for 10 min at 4°C. After discarding the supernatant, pellets were homogenized and centrifuged twice more. Final pellets were re-suspended in ice-cold 50 mM HEPES, pH 7.4, aliquoted and stored at -80°C for future use. Protein concentration was determined the same day, prior to freezing, using BCA^TM Protein Assay (Thermo Fisher Scientific, Waltham, MA, USA).
(§2) Non-specific binding was defined by radioactivity remaining in the presence of 10 μM of non-radioactive GTPγS. All reactions were incubated for 30 min at 30°C, terminated by filtration through Whatman GF/B glass fiber filters (Brandel, Inc.) and followed by four 4 ml washes of ice cold filtration buffer (50 mM HEPES, pH 7.4) containing 0.1% bovine serum albumin. Filter punches of individual samples were placed in scintillation vials containing 4 mls of ScintiverseTM BD cocktail scintillation fluid (Fisher Scientific, Pittsburg, PA, USA). Final counts were determined using liquid scintillation spectrophotometry (Tri Carb 2100 TR Liquid Scintillation Analyzer, Packard Instrument Company, Meriden, CT, USA) after overnight incubation.
(§3) Statistical analyses were conducted by utilizing GraphPad Prism v6.0g (GraphPad Software, Inc.; San Diego, CA, USA). IC50 values from competition receptor binding curves were derived by non-linear regression. […] Non-linear regression analysis of concentration-effect curves was also used to determine potency (ED50 or IC50) and efficacy (Emax or Imax) for modulation of GTPγS and adenylyl cyclase activity, respectively. All IC50, EC50, Ki, and Kb values were converted to pEC50, pIC50, pKi, and pKb values in order to permit use of parametric statistical analyses. For all experiments comparing three or more values, an one-way ANOVA was employed, followed by Dunnett’s or Tukey’s post hoc tests. For comparisons of two values, an unpaired t-test was utilized. To determine significant radioligand displacement or modulation of G-protein activity compared to basal levels, a one-sample t-test was employed.
(§4) CBRs are coupled to Gi/Go type G-proteins. Therefore, binding of agonists to CBRs leads to G-protein activation, antagonists produce no effect, and inverse agonists reduce basal G-protein activity produced by constitutively active receptors. SERMs were screened by examining the ability of a single receptor saturating concentration (10 μM) to modulate G-protein activity in membranes prepared from CHO-hCB1 and CHO-hCB2 cells. G-protein activation was quantified using employing [^35S]GTPγS, a non-hydrolyzable analog of GTP, that irreversibly binds to the G-proteins when activated.
For orientation: GTPγS is a poorly hydrolysed GTP analogue; its binding reports G protein activation.

Test [2] has as its target T2, human cannabinoid type-1 receptors (hCB1) (Homo sapiens, UniProt P21554).
T2 construct: host or cells: CHO cells (CHO-hCB1), membranes or intact cells
Put plainly: Competition receptor binding with [3H]CP-55,940, CHO-hCB1 membranes. On the procedure:
as §1
The final volume of each sample was 1 ml, containing 50 mM Tris-HCl buffer (pH 7.4), 0.05% bovine serum albumin, 5 mM MgCl2, increasing concentrations of non-radioactive competing SERM ligands, and either 100 μg of CHO-hCB1 or 50 μg of CHO-hCB2 membrane homogenates. […] Each sample condition was performed in triplicate and allowed to reach equilibrium at room temperature for 90 min. Reactions were terminated by rapid vacuum filtration through Whatman GF/B glass fiber filters (Brandel, Inc.), followed by four 4 ml washes of ice-cold filtration buffer (50 mM Tris at pH 7.4 and 0.05% BSA). Filter punches of individual samples were placed in scintillation vials containing 4 mls of ScintiverseTM BD cocktail scintillation fluid (Fisher Scientific, Pittsburg, PA, USA). Final counts were determined using liquid scintillation spectrophotometry (Tri Carb 2100 TR Liquid Scintillation Analyzer, Packard Instrument Company, Meriden, CT, USA) after overnight incubation.
as §3
For initial comparison of potential SERM binding to CBRs, 14 commercially available compounds from 5 structurally distinct classes (Figure 1) were subjected to a radioligand binding screen (Figure 2).

Test [3] concerns the target T2, human cannabinoid type-1 receptors (hCB1). In words: [35S]GTPγS binding, CHO-hCB1 membranes. The class given is biochemical. The settings on record: for IMAX, GTPγS Binding (% Basal) CHO-hCB1: maximal reduction of basal G-protein activity. On the procedure:
as §1, §2, §3, §4

Test [4] has as its target T3, human mu opioid receptors (hMOR) (Homo sapiens, UniProt P35372).
T3 construct: expressed in transfected cells; host or cells: CHO cells (CHO-hMOR), membranes or intact cells
Put plainly: [35S]GTPγS binding, CHO-hMOR membranes (control devoid of CBRs). The format is biochemical. The settings on record: 10 μM. On the procedure: as §2

Test [5] deals with T2, human cannabinoid type-1 receptors (hCB1). Put plainly: Antagonism of CP-55,940 inhibition of adenylyl cyclase, intact CHO-hCB1 cells. The class given is cell-based. The settings on record: for IMAX of CP-55,940 after pre-incubation with the drug: CHO-hCB1 cells, pre-incubation 30 min: OSP, NAF, BAZ 10 μM, RAL 2 μM, AM-281 1 μM. On the procedure: Briefly, cells cultured between passages 4 and 15 were seeded into 24-well plates at a concentration of 6.5 million cells per plate and incubated overnight in a humidified incubator maintained at 37°C and 5% CO2. Growth media was removed the next day and replaced with media containing […] [^3H]adenine, 0.9g/L NaCl, and 0.5 mM isobutyl-methyl-xanthine (IBMX) for 2–3 h. Radioactive media was then removed and each well treated with 0.5 ml of varying concentrations of SERM compounds in a Krebs-Ringer-HEPES solution (10 mM HEPES, 110 mM NaCl, 25 mM Glucose, 55 mM Sucrose, 5 mM KCl, 1 mM MgCl2, 1.8 mM CaCl2, pH 7.4) containing 0.5 mM IBMX and 10 μM forskolin. Plates were then floated in a 37°C water bath for 15 min before reactions were terminated by addition of 50 μL of 2.2 N HCl to each well.
Reactions were then terminated by adding 50 μL of 2.2 N HCl to each well. [^3H]cAMP was isolated using alumina column chromatography and radioactivity quantified following addition of 10 mls of scintiverseTM BD cocktail scintillation fluid (Fisher Scientific, Pittsburg, PA, USA) by liquid scintillation spectrophotometry (Tri Carb 2100 TR Liquid Scintillation Analyzer, Packard Instrument Company, Meriden, CT, USA).
as §3
IC50 and Kb values were converted to pIC50 and pKb values (pIC50 = -Log[IC50] or pKb = -Log[Kb], respectively) to allow use of parametric statistics for comparison.

Test [6] deals with T4, human mu opioid receptors (CHO-hMOR cells) (Homo sapiens, UniProt P35372).
T4 construct: expressed in transfected cells; host or cells: CHO cells (CHO-hMOR), membranes or intact cells
T4 sequence (P35372 whole entry): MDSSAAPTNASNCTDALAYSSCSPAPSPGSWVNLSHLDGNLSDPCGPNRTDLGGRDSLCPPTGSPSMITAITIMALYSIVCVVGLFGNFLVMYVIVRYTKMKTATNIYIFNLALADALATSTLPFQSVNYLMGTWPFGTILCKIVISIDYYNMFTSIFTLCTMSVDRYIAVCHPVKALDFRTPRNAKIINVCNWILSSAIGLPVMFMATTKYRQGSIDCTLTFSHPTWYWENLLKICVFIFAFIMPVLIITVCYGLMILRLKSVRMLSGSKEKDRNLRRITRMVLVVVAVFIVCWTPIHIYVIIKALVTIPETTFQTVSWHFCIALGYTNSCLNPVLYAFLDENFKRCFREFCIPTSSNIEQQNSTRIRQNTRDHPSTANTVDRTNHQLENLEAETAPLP
In words: Adenylyl cyclase assay, CHO-hMOR cells (control not expressing hCB2Rs). The settings on record: 10 μM. The class given is cell-based.

Setting [7] is: reduction of basal G-protein activity, CHO-hCB2 membranes, read-out: IC50, GTPγS Binding CHO-hCB2.

Molecules are shown by their SMILES. Where two headings read alike, the source gives them in different places. Marks after values point to notes of the source that are not given here.

Usually Ki stands for a dissociation constant, usually derived from enzyme kinetics or from competition with a known ligand. Read a low Ki as a stronger hold on the target. As usually defined, the Kb is the affinity of an antagonist, worked out from how it opposes an agonist.

T1 sequence (P34972 whole entry): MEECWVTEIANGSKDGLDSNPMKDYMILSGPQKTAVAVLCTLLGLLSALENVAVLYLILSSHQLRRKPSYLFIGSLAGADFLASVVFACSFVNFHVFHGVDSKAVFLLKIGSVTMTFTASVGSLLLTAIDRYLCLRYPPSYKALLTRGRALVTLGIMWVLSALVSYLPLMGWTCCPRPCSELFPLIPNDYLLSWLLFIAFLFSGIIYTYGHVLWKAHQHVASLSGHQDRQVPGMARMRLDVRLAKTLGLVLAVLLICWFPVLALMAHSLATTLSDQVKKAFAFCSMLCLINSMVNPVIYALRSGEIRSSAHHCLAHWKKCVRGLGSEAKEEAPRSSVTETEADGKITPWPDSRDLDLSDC
T2 sequence (P21554 whole entry): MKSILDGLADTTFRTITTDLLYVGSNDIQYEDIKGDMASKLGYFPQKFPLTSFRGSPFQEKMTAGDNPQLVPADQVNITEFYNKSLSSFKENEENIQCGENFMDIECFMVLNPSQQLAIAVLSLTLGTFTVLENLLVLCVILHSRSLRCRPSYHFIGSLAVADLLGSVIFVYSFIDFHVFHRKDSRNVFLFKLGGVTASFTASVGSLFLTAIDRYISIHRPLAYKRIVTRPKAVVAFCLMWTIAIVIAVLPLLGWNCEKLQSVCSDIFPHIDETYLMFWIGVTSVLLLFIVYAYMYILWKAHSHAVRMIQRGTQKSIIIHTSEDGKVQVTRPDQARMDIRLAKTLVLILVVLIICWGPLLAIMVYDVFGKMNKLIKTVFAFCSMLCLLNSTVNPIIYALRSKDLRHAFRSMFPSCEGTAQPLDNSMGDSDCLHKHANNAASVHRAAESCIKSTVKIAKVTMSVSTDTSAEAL
T3 sequence (P35372 whole entry): as the sequence (P35372 whole entry) above

In the case of `O=C(c1ccc(OCCN2CCCCC2)cc1)c1c(-c2ccc(O)cc2)sc2cc(O)ccc12` [RAL, raloxifene], the “IMAX, GTPγS Binding (% Basal) CHO-hCB2” value in test [1] was 34.3 ± 2.2^b,∗∗ %. In test [1] (setting [7]), the IC50 amounted to 87.1 nM.

Turning to `OCCOc1ccc(/C(=C(/CCCl)c2ccccc2)c2ccccc2)cc1` [OSP, ospemifene], affinity in test [2] was put at a Ki of 753 nM. Moreover, the “displacement of [3H]CP-55,940 from hCB1Rs” value in test [2] (single 1 μM concentration, 0.2 nM [3H]CP-55,940, CHO-hCB1) is recorded as “approximately 50%”. Also, in test [3], the IC50 was 170 nM and the “IMAX, GTPγS Binding (% Basal) CHO-hCB1” value was 30.3 ± 2.0^a %. In test [3] (CHO-hCB1 membranes, 10 μM), the “reduction of basal G-protein activity, hCB1Rs” value is roughly 30%. The “reduction of G-protein activity, hCB2Rs” value in test [1] (CHO-hCB2 membranes, 10 μM) is given as roughly 30%. Besides, in test [1], the “IMAX, GTPγS Binding (% Basal) CHO-hCB2” value is given as 39.7 ± 2.4^a,∗∗ %. In addition, the IC50 in test [1] (setting [7]) turned out to be 558 nM. Further, the “decrease in basal G-protein activity, CHO-hMOR” value in test [4] is 11%. In test [5], the Kb is 173 nM and the “IMAX of CP-55,940 after pre-incubation with the drug” value came to 43.8 ± 2.7%.

Molecule `COc1ccc2c(c1)CCC(c1ccccc1)=C2c1ccc(OCCN2CCCC2)cc1` [NAF, nafoxidine] had a Ki in test [2] (CHO-hCB1 membranes, Cheng-Prusoff from IC50) of 957 nM. Further, the “Selectivity (CB1/CB2)” value in test [2] (ratio of Ki hCB1 / Ki hCB2) came to 0.74. In test [3], the “IMAX, GTPγS Binding (% Basal) CHO-hCB1” value is reported as 31.7 ± 1.5^a %. Moreover, the IC50 in test [3] (reduction of basal G-protein activity, CHO-hCB1 membranes, read-out: IC50, GTPγS Binding CHO-hCB1) is 524 nM; in test [1] (CHO-hCB2 membranes, mean ± SEM, read-out: pIC50, GTPγS Binding CHO-hCB2 (converted)), 344 nM. Besides, the “IMAX, GTPγS Binding (% Basal) CHO-hCB2” value in test [1] is on record as 38.7 ± 1.2^a,b,∗∗ %. For the same molecule, in test [5], the “IMAX of CP-55,940 after pre-incubation with the drug” value stood at 38.3 ± 1.7%. Besides, the Kb in test [5] (read-out: Kb (antagonist dissociation constant), CHO-hCB1) was 1160 nM.

Consider `Cc1c(-c2ccc(O)cc2)n(Cc2ccc(OCCN3CCCCCC3)cc2)c2ccc(O)cc12` [BAZ, bazedoxifene], for which, in test [1], the “IMAX, GTPγS Binding (% Basal) CHO-hCB2” value is reported as 34.0 ± 1.0^b,∗ %. In addition, in test [1] (setting [7]), the IC50 came to 71.6 nM. Also, the “effect on basal cAMP levels, CHO-hMOR cells” value in test [6] is “only slightly altered”.
